For 21 compounds, IC50 results are on record in patent publication US20130102595A1 (Curis, Inc., priority 2011, published 2013).

pIC50: −log10 of the molar value. Where only a bound is given, the exact number is not on record here.

One experiment deals with T1, PI3Kα (p110α/p85α) (Homo sapiens, UniProt P42336).
T1 construct: GST (N); made in house; host or cells: Baculovirus-infected Sf9 cells
Briefly: PI3Kα ADP-Glo assay. Type of experiment: biochemical. The conditions noted are these: 20 μM PIP2, 10 μM ATP, 30 minutes. Here is the method: (A) an In Vitro Assay which Determines the Ability of a Test Compound to Inhibit PI3Kα.
Activity of PI3Kα was measured using ADP-Glo assay from Promega. PI3Kα, a complex of N-terminal GST-tagged recombinant full-length human p110α (GenBank, Accession No. U79143) and N-terminal His tagged recombinant full length human p85a (GenBank Accession No. XM—043865) were co-expressed in a Baculovirus infected Sf9 cell expression system. The ADP-Glo assay was performed to measure the amount of ADP generated from ATP hydrolysis coupled with PIP2 phosphorylation by the purified recombinant PI3Kα (p110α/p85α). PI3Kα was incubated with 20 μM PIP2 substrate in the reaction buffer (50 mM HEPES, pH 7.4, 150 mM NaCl, 5 mM MgCl2, 1 mM DTT, 3 uM Naorthovanadate, 10 μM ATP and 0.5% DMSO) for 30 minutes at room temperature. The ADP generated was then detected by ADP-Glo assay from Promega, a luminescent ADP detection assay. The ADP-Glo assay is performed in two steps; first, after the kinase reaction, ADP-Glo Reagent is added to terminate the kinase reaction and deplete the remaining ATP. Second, the Kinase Detection Reagent is added to simultaneously convert ADP to ATP and allow the newly synthesized ATP to be measured using a luciferase/luciferin reaction.

The subject of experiment [1] is HDACs (HeLa cell nuclear extracts). Put plainly: HDAC enzymatic activity, Biomol Color de Lys system. Type of experiment: biochemical. The following applies: 1 hour, 25° C. Here is the method:
(E) an In Vitro Assay which Determines the Ability of a Test Compound to Inhibit HDAC Enzymatic Activity.
HDAC inhibitory activity was assessed using the Biomol Color de Lys system (AK-500, Biomol, Plymouth Meeting, Pa.). Briefly, HeLa cell nuclear extracts were used as a source of HDACs. Different concentrations of test compounds were serially diluted in dimethylsulphoxide (DMSO) and added to HeLa cell nuclear extracts in the presence of a colorimetric artificial substrate. Final assay condition contained 50 mM Tris/Cl, pH 8.0, 137 mM NaCl, 2.7 mM KCl and 1 mM MgCl2. Reactions were carried in room temperature (25° C.) for 1 hour before addition of developer for termination. Relative enzyme activity was measured in the WALLAC Victor II 1420 microplate reader as fluorescence intensity (excitation: 350-380 nm; emission: 440-460 nm). Data were analyzed using GraphPad Prism (v4.0a) with a sigmoidal dose response curve fitting for IC50 calculation.

T1 sequence (P42336 whole entry): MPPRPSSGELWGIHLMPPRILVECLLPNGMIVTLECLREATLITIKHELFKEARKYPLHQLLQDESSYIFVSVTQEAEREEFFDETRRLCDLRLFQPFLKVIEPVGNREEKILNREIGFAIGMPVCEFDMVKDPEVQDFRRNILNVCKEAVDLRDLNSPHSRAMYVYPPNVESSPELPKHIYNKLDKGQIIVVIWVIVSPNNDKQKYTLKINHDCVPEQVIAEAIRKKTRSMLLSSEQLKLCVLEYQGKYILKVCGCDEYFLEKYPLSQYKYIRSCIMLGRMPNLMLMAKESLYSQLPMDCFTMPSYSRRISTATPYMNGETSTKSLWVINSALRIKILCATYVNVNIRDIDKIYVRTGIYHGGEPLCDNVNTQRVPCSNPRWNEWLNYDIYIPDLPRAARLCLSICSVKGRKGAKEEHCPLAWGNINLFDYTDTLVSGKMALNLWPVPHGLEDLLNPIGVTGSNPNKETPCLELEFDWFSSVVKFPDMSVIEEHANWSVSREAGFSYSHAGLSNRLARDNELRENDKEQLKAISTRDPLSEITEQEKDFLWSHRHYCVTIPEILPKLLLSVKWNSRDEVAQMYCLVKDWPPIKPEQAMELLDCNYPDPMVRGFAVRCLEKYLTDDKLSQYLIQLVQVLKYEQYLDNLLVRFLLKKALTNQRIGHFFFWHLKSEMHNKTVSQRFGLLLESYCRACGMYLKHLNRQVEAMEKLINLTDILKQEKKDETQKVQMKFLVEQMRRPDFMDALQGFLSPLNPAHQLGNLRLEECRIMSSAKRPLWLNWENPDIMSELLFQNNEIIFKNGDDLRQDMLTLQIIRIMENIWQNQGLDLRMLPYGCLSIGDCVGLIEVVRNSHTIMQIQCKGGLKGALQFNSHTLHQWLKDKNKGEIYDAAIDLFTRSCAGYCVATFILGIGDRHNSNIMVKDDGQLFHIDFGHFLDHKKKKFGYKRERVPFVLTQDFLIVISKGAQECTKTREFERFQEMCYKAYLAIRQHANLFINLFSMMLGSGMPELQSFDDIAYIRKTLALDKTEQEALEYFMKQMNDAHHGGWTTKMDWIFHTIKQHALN
T1 sequence (P27986 whole entry partner): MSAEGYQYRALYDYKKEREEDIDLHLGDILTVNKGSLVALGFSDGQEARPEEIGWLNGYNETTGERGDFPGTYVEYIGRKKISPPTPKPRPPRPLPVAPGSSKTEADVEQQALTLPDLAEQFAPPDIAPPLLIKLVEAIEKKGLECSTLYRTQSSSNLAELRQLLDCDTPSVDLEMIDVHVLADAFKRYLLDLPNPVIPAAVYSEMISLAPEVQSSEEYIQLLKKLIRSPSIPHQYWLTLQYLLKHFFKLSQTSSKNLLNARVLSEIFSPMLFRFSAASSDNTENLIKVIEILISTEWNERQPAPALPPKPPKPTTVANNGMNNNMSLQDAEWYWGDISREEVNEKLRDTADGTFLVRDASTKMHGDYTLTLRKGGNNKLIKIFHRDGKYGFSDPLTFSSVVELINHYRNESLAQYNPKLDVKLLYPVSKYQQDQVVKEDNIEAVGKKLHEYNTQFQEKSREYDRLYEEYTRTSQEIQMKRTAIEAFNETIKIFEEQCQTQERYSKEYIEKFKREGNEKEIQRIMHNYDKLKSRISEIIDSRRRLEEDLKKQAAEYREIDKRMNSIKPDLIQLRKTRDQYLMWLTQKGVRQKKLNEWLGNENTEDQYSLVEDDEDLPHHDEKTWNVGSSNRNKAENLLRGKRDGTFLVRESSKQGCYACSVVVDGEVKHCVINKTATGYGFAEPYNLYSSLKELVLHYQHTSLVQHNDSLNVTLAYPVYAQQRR

For `CNc1ccc(-c2nc(N3CCOCC3)c3sc(NS(=O)(=O)c4ccc(/C=C/C(=O)NO)cc4)cc3n2)cn1` [Compound 223], the negative logarithm of the IC50 (pIC50) (against PI3Kα (p110α/p85α); in experiment [1]) was over 7.00 each time.

Consider `CN(c1ncc(C(=O)NO)cn1)C(C)(C)c1cc2nc(-c3ccc(N)cc3)nc(N3CCOCC3)c2s1` [Compound 270], for which, in experiment [1], the pIC50 – broadly, −log10 of the IC50, conventionally taken in molar units – is over 7.00.

With `CN(Cc1cc2nc(-c3cccc4[nH]ncc34)nc(N3CCN(CCO)CC3)c2s1)c1ncc(C(=O)NO)cn1` [Compound 63], the pIC50 on PI3Kα (p110α/p85α) is under 5.00; in experiment [1], over 7.00.

For the compound `COc1ncc(-c2nc(N3CCOCC3)c3sc(NS(=O)(=O)c4ccc(/C=C/C(=O)NO)cc4)cc3n2)cn1` [Compound 219], the negative-log IC50 (pIC50) (against PI3Kα (p110α/p85α); in experiment [1]) was over 7.00 throughout.

In the case of `CN(Cc1cc2nc(-c3cnc(C(N)=O)nc3)nc(N3CCOCC3)c2s1)c1ncc(C(=O)NO)cn1` [Compound 122], the pIC50 (at PI3Kα (p110α/p85α); in experiment [1]) was over 7.00 each time.

In the case of `NC(=O)CN(Cc1cc2nc(-c3cccc4[nH]ncc34)nc(N3CCOCC3)c2s1)c1ncc(C(=O)NO)cn1` [Compound 97], the pIC50 (against PI3Kα (p110α/p85α); in experiment [1]) was over 7.00 each time.

Consider `O=C(NO)c1cnc(N2CCC(CNc3cc4nc(-c5cccc6[nH]ncc56)nc(N5CCOCC5)c4s3)CC2)nc1` [Compound 48], for which the pIC50 (against PI3Kα (p110α/p85α); in experiment [1]) was over 7.00 in each case.

Regarding `Cc1ncc(-c2nc(N3CCOCC3)c3sc(CN(CCO)c4ncc(C(=O)NO)cn4)cc3n2)s1` [Compound 312], the pIC50 is 6.00 to 7.00 at PI3Kα (p110α/p85α) and over 7.00 in experiment [1].

For `C/C(=N/O)c1ccc(F)c(-c2nc(N3CCOCC3)c3sc(CN(C)c4ncc(C(=O)NO)cn4)cc3n2)c1` [Compound 298], the values for the pIC50 (against PI3Kα (p110α/p85α); in experiment [1]) were 6.00 to 7.00 and over 7.00, respectively.

Turning to `O=C(NO)c1cnc(N(CCCO)Cc2cc3nc(-c4cccc5[nH]ncc45)nc(N4CCOCC4)c3s2)nc1` [Compound 91], the pIC50 (against PI3Kα (p110α/p85α); in experiment [1]) was over 7.00 throughout.

In the case of `CN(Cc1cc2nc(-c3cccc(NS(C)(=O)=O)c3)nc(N3CCOCC3)c2s1)c1ncc(C(=O)NO)cn1` [Compound 288], the results for the pIC50 (against PI3Kα (p110α/p85α); in experiment [1]) were under 5.00 and over 7.00, respectively.

As to `COc1ccc(-c2nc(N3CCOCC3)c3sc(C(C)(C)Nc4ncc(C(=O)NO)cn4)cc3n2)cn1` [Compound 250, N-Hydroxy-2-(2-(2-(6-methoxypyridin-3-yl)-4-morpholino-thieno[3,2-d]pyrimidin-6-yl)propan-2-ylamino)pyrimidine-5-carboxamide], the pIC50 (against PI3Kα (p110α/p85α); in experiment [1]) was over 7.00 throughout.

Take `Nc1ccc(-c2nc(N3CCOCC3)c3sc(CNCc4ccc(/C=C/C(=O)NO)cc4)cc3n2)cc1` [Compound 210]: the pIC50 (against PI3Kα (p110α/p85α); in experiment [1]) was 6.00 to 7.00 throughout.

With `O=C(CCCCCNc1cc2nc(-c3cccc4[nH]ncc34)nc(N3CCOCC3)c2s1)NO` [Compound 19], the results for the negative logarithm of the IC50 (pIC50) (against PI3Kα (p110α/p85α); in experiment [1]) were 6.00 to 7.00 and over 7.00, respectively.

Turning to `CN(Cc1cc2nc(-c3ccc(OCc4ccccc4)nc3)nc(N3CCOCC3)c2s1)c1ncc(C(=O)NO)cn1` [Compound 260], the values for the negative-log IC50 (pIC50) (on PI3Kα (p110α/p85α); in experiment [1]) were under 5.00 and over 7.00, respectively.

Consider `CS(=O)(=O)N1CCN(Cc2cc3nc(-c4cccc5[nH]ncc45)nc(NCCCCCC(=O)NO)c3s2)CC1` [Compound 35], for which the pIC50 against PI3Kα (p110α/p85α) was under 5.00.

`CS(=O)(=O)N1CCN(Cc2cc3nc(-c4cccc5[nH]ncc45)nc(NCCCCCCC(=O)NO)c3s2)CC1` [Compound 36]: the negative-log IC50 (pIC50) on PI3Kα (p110α/p85α) is under 5.00.

In turn, `CS(=O)(=O)N1CCN(Cc2cc3nc(-c4cccc5[nH]ncc45)nc(NCCCCC(=O)NO)c3s2)CC1` [Compound 34] gave a negative logarithm of the IC50 (pIC50) at PI3Kα (p110α/p85α) of under 5.00.

As to `CC(c1cc2nc(-c3ccc(N)cc3)nc(N3CCOCC3)c2s1)N(C)c1ncc(C(=O)NO)cn1` (centres unmarked) [Compound 214], the pIC50 in experiment [1] is over 7.00.

In turn, `CN(Cc1cc2nc(-c3ccc4c(c3)OCCN4)nc(N3CCOCC3)c2s1)c1ncc(C(=O)NO)cn1` [Compound 191] gave a negative logarithm of the IC50 (pIC50) in experiment [1] of over 7.00.

For the compound `CN(Cc1cc2nc(-c3cccc4[nH]c(=O)[nH]c34)nc(N3CCOCC3)c2s1)c1ncc(C(=O)NO)cn1` [Compound 316], the pIC50 on PI3Kα (p110α/p85α) is over 7.00.
